# Laboratory results: US9539257B2, “Method of treating cancer” (NOVARTIS AG, priority 2009, dated 2017)
# Several values for one entry are separate records, joined by “and”; a condition that tells them apart may be missing. Equal values may be shown once. Read-outs that look alike come from different tables or passages of the source.
# Assays:
# [1] = cancer patients receiving lapatinib; cited from earlier work
# HLA-B*4403 = conditions: matched case-control
# Description: (§5) The two phenotypes that were evaluated were maximum on-treatment liver chemistry values for ALT and TBL with respect to the upper limit of normal. These phenotypes were evaluated separately in case-control and quantitative trait analyses and jointly in a combined case-control analysis. ALT and TBL cases were defined as maximum on-treatment elevations of ≧3×ULN and ≧1.5×ULN, respectively, and control subjects were defined as maximum on-treatment ALT or TBL of ≦1×ULN. Approximately 950 patients with an adequate, fully consented DNA sample had available clinical data for these phenotypes. After subject genotyping quality control was completed, a total of 947 patients remained for pharmacogenetic analyses on at least one genetic variant.
# TNXB rs12153855 [2] = test: ALT case-control genetic association, exploratory study; assay type: in vivo, human; conditions: TNXB rs12153855 CC/CT
# Description: (§1) Germline DNA was extracted from peripheral blood (QiAmp DNA Blood Kit, Qiagen, Valencia, Calif.). This study evaluated candidate gene and genome-wide screening, performed in parallel, to detect case-control association signals in the exploratory cohort. Class I and II HLA genes (seven genes to 4-digit and three genes to 2-digit resolution) were typed by Laboratory Corporation of America (Burlington, N.C.) and Histogenetics (Ossining, N.Y.), or at GSK using the LABType® SSO Typing Test (One Lambda, Canoga Park, Calif.). […] Whole genome screen genotyping on the Illumina Human 1M-Duo platform was also conducted (Expression Analysis, Durham, N.C.).
# (§2) For the exploratory study, initial analysis of the GWAS was done using logistic regression, carried out in PLINK (Purcell S, et al. American Journal of Human Genetics 2007; 81, 559-575) using the genotypic test option when three genotype classes were observed, or the additive test option when only two genotype classes were observed. […] In addition to the genotype term, all models included baseline ALT xULN, treatment group (for the exploratory study), and a sufficient number of principal components to account for potential confounding by population structure. Principal components were obtained from EIGENSOFT (Patterson N. et al. PLoS Genetics 2006; 2: e190), using study subjects and HapMap founders.
# (§3) Genetic markers selected for confirmatory were required to achieve pre-defined p-value thresholds in the exploratory analysis of p≦0.05 for HLA markers, p≦0.01 for candidate gene markers and p≦10-4 for whole genome screen SNPs. For markers confirmed at p≦0.01, measures of potential clinical utility were evaluated. An allele or genotype(s) was designated which conferred a higher risk of ALT elevation and this was compared to the non-risk allele(s)/genotype(s) and the odds ratio (OR), positive predictive value (PPV), and negative predictive value (NPV) calculated.
# HLA-DRB1*0701 [3] = tested on: HLA-DRB1*0701
# Description: (§4) The two phenotypes that were evaluated were maximum on-treatment liver chemistry values for ALT and TBL with respect to the upper limit of normal. These phenotypes were evaluated in both case-control and quantitative trait analyses while key associations were examined qualitatively in the combined ALT/TBL cases. ALT and TBL cases were defined as maximum on-treatment elevations of ≧3×ULN and ≧1.5×ULN, respectively, and control subjects were defined as maximum on-treatment ALT or TBL of ≦1×ULN. […] Approximately 370 patients with an adequate, fully consented DNA sample had available clinical data for these phenotypes.
# as §1, §2, §3
# HLA-DQB1*0202 = tested on: HLA-DQB1*0202
# Description: as §4, §1, §2, §3
# HLA-DQA1*0201 = conditions: for HLA-DQA1*0201 Carrier: Non Cases (number) / HLA-DQA1*0201 Non-Carrier: Non Cases (number) / HLA-DQA1*0201 Carrier: Cases (number) / HLA-DQA1*0201 Non-Carrier: Cases (number) / NPV (CI) / OR (CI) / PPV (CI): confirmatory cohort; for NPV (CI) / OR (CI) / PPV (CI): HLA-DQA1*0201 carriage, cases vs non-cases
# Description: as §4, §1, §2, §3
# TNXB rs12153855 [4] = test: ALT case-control genetic association, confirmatory study (lapatinib plus letrozole arm); assay type: in vivo, human; conditions: TNXB rs12153855 CC/CT
# Description: as §1, §2, §3
# UGT1A1*28 = conditions: exploratory
# Description: The two phenotypes that were evaluated were maximum on-treatment liver chemistry values for ALT and TBL with respect to the upper limit of normal. These phenotypes were evaluated separately in case-control and quantitative trait analyses and jointly in a combined case-control analysis. ALT and TBL cases were defined as maximum on-treatment elevations of ≧3×ULN and ≧1.5×ULN, respectively, and control subjects were defined as maximum on-treatment ALT or TBL of ≦1×ULN.
# 2) As genetic understanding of drug-induced liver injury is limited, a comprehensive drug induced liver injury (DILI) panel, developed by GSI in consultation with external liver experts was also evaluated. This DILI panel is comprised of approximately 6500 single nucleotide polymorphisms (SNPs) in 270 gene regions derived from the postulated mechanisms involved in the pathophysiology of DILI. In both approaches, genetic variation in each gene region was investigated using tag SNPs selected from the International HapMap project and/or high density SNP coverage consisting of all functional SNPs with a previously recorded genotype to phenotype correlation. […] Evaluation of HLA genes focused on a subset of the total number of patients consisting of all ALT cases (N=47) and matched controls (N=47).
# HLA-DRB1*0701 [5] = tested on: HLA-DRB1*0701; remark: listed apart in the source
# Description: as §5
# [6] = DRB1*0701 carriage, ALT cases, Confirmatory study
# [7] = DRB1*0701 carriage, ALT controls, Confirmatory study
# [8] = restricted baseline (ALT and TBL <=1xULN at baseline)
# [9] = unrestricted baseline (ALT and/or TBL >1xULN at baseline)
# [10] = DQB1*0202 carriage, ALT cases, Confirmatory study
# [11] = DQB1*0202 carriage, ALT controls, Confirmatory study
compound,measurement,setting,value
"CS(=O)(=O)CCNCc1ccc(-c2ccc3ncnc(Nc4ccc(OCc5cccc(F)c5)c(Cl)c4)c3c2)o1 [lapatinib, N-(3 chloro-4-{[(3-fluorophenyl)methyl]oxy}phenyl)-6-[5-({[2 (methylsulfonyl)ethyl]amino}methyl)-2-furanyl]-4-quinazolinamine bis(4 methylbenzenesulfonate)monohydrate]","Grade 3 ALT elevation (Common Toxicity Criteria for Adverse Events, v4.0), patients affected",[1],1.6%
same,"Hy's Rule events, patients affected",[1],0.2%
same,ALT cases carrying one copy of HLA-B*4403,HLA-B*4403; 47 cases,Twenty three
same,ALT controls carrying one copy of HLA-B*4403,HLA-B*4403; 47 controls,6%
same,Carriage: cases (%),TNXB rs12153855 [2]; ALT cases,(35%)
same,Carriage: cases (n/N),TNXB rs12153855 [2]; ALT cases,12/34
same,Carriage: controls (%),TNXB rs12153855 [2]; ALT controls,(17%)
same,Carriage: controls (n/N),TNXB rs12153855 [2]; ALT controls,47/281
same,Carriage: cases (%),HLA-DRB1*0701 [3]; [6],(67%)
same,Carriage: cases (n/N),HLA-DRB1*0701 [3]; [6],16/24
same,Carriage: controls (%),HLA-DRB1*0701 [3]; [7],(23%)
same,Carriage: controls (n/N),HLA-DRB1*0701 [3]; [7],35/155
same,combined ALT/TBL cases that were HLA-DRB1*0701 carriers,HLA-DRB1*0701 [3]; [8],6/6
same,combined ALT/TBL cases that were HLA-DRB1*0701 carriers,HLA-DRB1*0701 [3]; [9],1/6
same,Carriage: cases (%),HLA-DQB1*0202; [10],(63%)
same,Carriage: cases (n/N),HLA-DQB1*0202; [10],15/24
same,Carriage: controls (%),HLA-DQB1*0202; [11],(19%)
same,Carriage: controls (n/N),HLA-DQB1*0202; [11],30/155
same,combined ALT/TBL cases that carried HLA-DQB1*0202,HLA-DQB1*0202; [8],5/6
same,combined ALT/TBL cases that were HLA-DQB1*0202 carriers,HLA-DQB1*0202; [9],1/6
same,HLA-DQA1*0201 Carrier: Non Cases (number),HLA-DQA1*0201; ALT Cases > 3 xULN threshold,82
same,HLA-DQA1*0201 Non-Carrier: Non Cases (number),HLA-DQA1*0201; ALT Cases > 3 xULN threshold,268
same,HLA-DQA1*0201 Carrier: Cases (number),HLA-DQA1*0201; ALT Cases > 3 xULN,17
same,HLA-DQA1*0201 Non-Carrier: Cases (number),HLA-DQA1*0201; ALT Cases > 3 xULN,7
same,HLA-DQA1*0201 Carrier: Non Cases (number),HLA-DQA1*0201; ALT Cases > 5 xULN threshold,90
same,HLA-DQA1*0201 Non-Carrier: Non Cases (number),HLA-DQA1*0201; ALT Cases > 5 xULN threshold,272
same,HLA-DQA1*0201 Carrier: Cases (number),HLA-DQA1*0201; ALT Cases > 5 xULN,9
same,HLA-DQA1*0201 Non-Carrier: Cases (number),HLA-DQA1*0201; ALT Cases > 5 xULN,3
same,HLA-DQA1*0201 Carrier: Non Cases (number),HLA-DQA1*0201; ALT Cases > 8 xULN threshold,93
same,HLA-DQA1*0201 Non-Carrier: Non Cases (number),HLA-DQA1*0201; ALT Cases > 8 xULN threshold,274
same,HLA-DQA1*0201 Carrier: Cases (number),HLA-DQA1*0201; ALT Cases > 8 xULN,6
same,HLA-DQA1*0201 Non-Carrier: Cases (number),HLA-DQA1*0201; ALT Cases > 8 xULN,1
same,"% that carry DQA1*0201, Hepatocellular",HLA-DQA1*0201; Confirmatory Study ALT Cases,83%
same,"% that carry DQA1*0201, Mixed",HLA-DQA1*0201; Confirmatory Study ALT Cases,78%
same,"N that carry DQA1*0201, Cholestatic",HLA-DQA1*0201; Confirmatory Study ALT Cases,0
same,"N that carry DQA1*0201, Hepatocellular",HLA-DQA1*0201; Confirmatory Study ALT Cases,10
same,"N that carry DQA1*0201, Mixed",HLA-DQA1*0201; Confirmatory Study ALT Cases,7
same,Carriage: cases (n/N),"HLA-DQA1*0201; DQA1*0201 carriage, ALT cases (>3xULN), Confirmatory study, lapatinib plus letrozole",17/24
same,Carriage: controls (n/N),"HLA-DQA1*0201; DQA1*0201 carriage, ALT controls, Confirmatory study, lapatinib plus letrozole",33/155
same,PPV,"HLA-DQA1*0201; Example 1A analysis: HLA-DQA1*0201, ALT cases vs all non-case subjects, 95% CI 0.11-0.27",0.18
same,NPV,"HLA-DQA1*0201; Example 1A analysis: HLA-DQA1*0201, ALT cases vs all non-case subjects, 95% CI 0.95-0.99",0.97
same,NPV (CI),HLA-DQA1*0201; ALT > 3 xULN,"0.97 (0.95, 0.99) and 0.975 (0.948, 0.990)"
same,OR (CI),HLA-DQA1*0201; ALT > 3 xULN,"7.9 (3.0, 23.3)"
same,PPV (CI),HLA-DQA1*0201; ALT > 3 xULN,"0.17 (0.10, 0.26)"
same,NPV (CI),HLA-DQA1*0201; ALT > 5 xULN,"0.99 (0.97, 0.9977)"
same,OR (CI),HLA-DQA1*0201; ALT > 5 xULN,"9.1 (2.2, 52.8)"
same,PPV (CI),HLA-DQA1*0201; ALT > 5 xULN,"0.09 (0.04, 0.17)"
same,NPV (CI),HLA-DQA1*0201; ALT > 8 xULN,"0.9964 (0.98, 0.9999)"
same,OR (CI),HLA-DQA1*0201; ALT > 8 xULN,"17.7 (2.1, 816)"
same,PPV (CI),HLA-DQA1*0201; ALT > 8 xULN,"0.06 (0.02, 0.13)"
same,DQA1*0201 alone carriage in non-cases,HLA-DQA1*0201; confirmatory study (82/350),23%
same,"cumulative incidence of ALT elevation, DQA1*0201 carriers compared with non-carriers","HLA-DQA1*0201; lapatinib plus letrozole treated patients, FIG. 3",higher
same,reduction of the rate of ALT elevation on removal of DQA1*0201 carriers,"HLA-DQA1*0201; lapatinib plus letrozole treated patients, confirmatory study",more than two-thirds
same,"hepatobiliary adverse event cases carrying the DQA1*0201 allele, number",HLA-DQA1*0201; of eleven cases that provided DNA,six
same,combined ALT/TBL cases that were HLA-DQA1*0201 carriers,HLA-DQA1*0201; [8],6/6
same,combined ALT/TBL cases that were HLA-DQA1*0201 carriers,HLA-DQA1*0201; [9],1/6
same,Carriage: cases (%),TNXB rs12153855 [4]; ALT cases,(63%)
same,Carriage: cases (n/N),TNXB rs12153855 [4]; ALT cases,15/24
same,Carriage: controls (%),TNXB rs12153855 [4]; ALT controls,(19%)
same,Carriage: controls (n/N),TNXB rs12153855 [4]; ALT controls,29/155
same,TBL cases with TA7/TA7 genotype,UGT1A1*28; TBL cases (N=60),Thirty five
same,TBL cases with at least one TA7 allele,UGT1A1*28; TBL cases (N=60),82%
same,TBL controls with TA7/TA7 genotype,UGT1A1*28; controls (N=396),5%
same,TBL controls with at least one TA7 allele,UGT1A1*28; controls (N=396),48%
same,combined ALT/TBL cases with at least one of the significant HLA alleles,"HLA-DRB1*0701 [5]; exploratory, 4/13 combined cases, HLA-DRB1*0701 or HLA-B*4403",31%
same,ALT cases with at least one copy of HLA-DRB1*0701,"HLA-DRB1*0701 [5]; matched case-control, 47 cases",40%
same,ALT controls with at least one copy of HLA-DRB1*0701,"HLA-DRB1*0701 [5]; matched case-control, 47 controls",13%
